pEC50: −log10 of the molar value.
System: Dkk1-LRP5-TCF-Luciferase
Test: Functional Dkk1-LRP5-TCF-Luciferase Assay in U2OS Cells
Details: for pEC50 / fold induction at 2 µM / fold induction at 20 µM: Homo sapiens, U2OS; for fold induction at 2 µM: read-out: B = TCF ACTIVITY/DMSO CONTROL Fold induction @ 2.0 uM, 2.0 uM compound; for fold induction at 20 µM: read-out: C = TCF ACTIVITY/DMSO CONTROL Fold induction @ 20.0 uM, 20.0 uM compound; for A = MAX FOLD Induction/DMSO CONTROL: maximum fold induction over DMSO control

| pEC50 | A = MAX FOLD Induction/DMSO CONTROL [fold] | SMILES | fold induction at 2 µM | fold induction at 20 µM |
| --- | --- | --- | --- | --- |
| 5.30 | 2.380 | c1ccc2cc(-c3ccnc(N4CCC(CN5CCOCC5)CC4)n3)ccc2c1 [4-({1-[4-(2-naphthyl)pyrimidin-2-yl]piperidin-4-yl}methyl)morpholine] | 0.76 | 1.96 |
| – | – | O=C1CN(CC2CCN(c3nccc(-c4ccc5ccccc5c4)n3)CC2)CCN1 [4-({1-[4-(2-naphthyl)pyrimidin-2-yl]piperidin-4-yl}methyl)piperazin-2-one] | 1.16 | 1.49 |
| 5.32 | 2.990 | c1ccc2cc(-c3ccnc(N4CCC(CN5CCOCC5)C4)n3)ccc2c1 (stereo not shown) [4-({1-[4-(2-naphthyl)pyrimidin-2-yl]pyrrolidin-3-yl}methyl)morpholine] | 1.07 | 3.1 |
| – | – | O=C1CN(CC2CCN(c3nccc(-c4ccc5ccccc5c4)n3)C2)CCN1 (stereo not shown) [4-({1-[4-(2-naphthyl)pyrimidin-2-yl]pyrrolidin-3-yl}methyl)piperazin-2-one] | 1.23 | 0.46 |
| – | – | c1ccc2cc(-c3ccnc(N4CCC(CN5CCSCC5)C4)n3)ccc2c1 (stereo not shown) [4-({1-[4-(2-naphthyl)pyrimidin-2-yl]pyrrolidin-3-yl}methyl)thiomorpholine] | 1.9 | – |
| – | 1.180 | O=C(CN1CCN(c2nccc(-c3ccc4ccccc4c3)n2)CC1)N1CCOCC1 [4-({4-[4-(2-naphthyl)pyrimidin-2-yl]piperazin-1-yl}acetyl)morpholine] | 1.03 | 2.1 |
| – | – | NS(=O)(=O)c1ccc(CNc2nccc(-c3ccc4ccccc4c3)n2)cc1 [4-({[4-(2-naphthyl)pyrimidin-2-yl]amino}methyl)benzenesulfonamide] | 1.3 | 1.06 |
| – | – | NC(=O)N1CCC(CNc2nccc(-c3ccc4ccccc4c3)n2)CC1 [4-({[4-(2-naphthyl)pyrimidin-2-yl]amino}methyl)piperidine-1-carboxamide] | 0.88 | 1.58 |
| – | – | O=CN1CCCN(c2nccc(-c3ccc4ccccc4c3)n2)CC1 [4-[4-(2-naphthyl)pyrimidin-2-yl]-1,4-diazepane-1-carbaldehyde] | 0.87 | 1.88 |
| 6.49 | 2.050 | NC(=O)N1CCCN(c2nccc(-c3ccc4ccccc4c3)n2)CC1 [4-[4-(2-naphthyl)pyrimidin-2-yl]-1,4-diazepane-1-carboxamide] | 1.5 | 1.79 |
| – | – | N=C(N)N1CCN(c2nccc(-c3ccc4ccccc4c3)n2)CC1 [4-[4-(2-naphthyl)pyrimidin-2-yl]piperazine-1-carboximidamide] | 1.1 | 0.05 |
| – | – | O=C(N[C@@H]1CCN(c2nccc(-c3ccc4ccccc4c3)n2)C1)c1ccc(Cl)cc1 [4-chloro-N-{(3R)-1-[4-(2-naphthyl)pyrimidin-2-yl]pyrrolidin-3-yl}benzamide] | 1.68 | – |
| – | – | O=C(N[C@H]1CCN(c2nccc(-c3ccc4ccccc4c3)n2)C1)c1ccc(Cl)cc1 [4-chloro-N-{(3S)-1-[4-(2-naphthyl)pyrimidin-2-yl]pyrrolidin-3-yl}benzamide] | 1.78 | – |
| – | – | N#Cc1ccc(C(=O)NC2CCCC(Nc3nccc(-c4ccc5ccccc5c4)n3)C2)cc1 (stereo not shown) [4-cyano-N-(3-{[4-(2-naphthyl)pyrimidin-2-yl]amino}cyclohexyl)benzamide] | 1.15 | 0.24 |
| – | – | N#Cc1ccc(C(=O)N[C@@H]2CCN(c3nccc(-c4ccc5ccccc5c4)n3)C2)cc1 [4-cyano-N-{(3R)-1-[4-(2-naphthyl)pyrimidin-2-yl]pyrrolidin-3-yl}benzamide] | – | 1.29 |
| – | – | N#Cc1ccc(C(=O)N[C@H]2CCN(c3nccc(-c4ccc5ccccc5c4)n3)C2)cc1 [4-cyano-N-{(3S)-1-[4-(2-naphthyl)pyrimidin-2-yl]pyrrolidin-3-yl}benzamide] | 0.84 | 1.24 |
| – | – | CC1(O)CCN(c2nccc(-c3ccc4ccccc4c3)n2)CC1 [4-methyl-1-[4-(2-naphthyl)pyrimidin-2-yl]piperidin-4-ol] | – | 1.09 |
| – | 1.230 | Cc1ccc(S(=O)(=O)N[C@H]2CC[C@H](Nc3nccc(-c4ccc5ccccc5c4)n3)CC2)cc1 [4-methyl-N-(trans-4-{[4-(2-naphthyl)pyrimidin-2-yl]amino}cyclohexyl)benzenesulfonamide] | 1.78 | 1.13 |
| – | – | Cc1ccc(S(=O)(=O)NCC2CN(c3nccc(-c4ccc5ccccc5c4)n3)C2)cc1 [4-methyl-N-({1-[4-(2-naphthyl)pyrimidin-2-yl]azetidin-3-yl}methyl)benzenesulfonamide] | 1.16 | 0.28 |

| pEC50 | A = MAX FOLD Induction/DMSO CONTROL [fold] | SMILES | fold induction at 2 µM | fold induction at 20 µM |
| --- | --- | --- | --- | --- |
| – | – | Cc1ccc(S(=O)(=O)NCC2CCN(c3nccc(-c4ccc5ccccc5c4)n3)CC2)cc1 [4-methyl-N-({1-[4-(2-naphthyl)pyrimidin-2-yl]piperidin-4-yl}methyl)benzenesulfonamide] | 1.07 | 0.41 |
| – | 0.780 | Cc1ccc(S(=O)(=O)NC2CCCN(c3nccc(-c4ccc5ccccc5c4)n3)CC2)cc1 (stereo not shown) [4-methyl-N-{1-[4-(2-naphthyl)pyrimidin-2-yl]azepan-4-yl}benzenesulfonamide] | 1.49 | 2.26 |
| – | – | Cc1ccc(S(=O)(=O)N[C@@H]2CCN(c3nccc(-c4ccc5ccccc5c4)n3)C2)cc1 [4-methyl-N-{(3R)-1-[4-(2-naphthyl)pyrimidin-2-yl]pyrrolidin-3-yl}benzenesulfonamide] | 1.44 | 0.09 |
| – | – | Cc1ccc(S(=O)(=O)N[C@H]2CCN(c3nccc(-c4ccc5ccccc5c4)n3)C2)cc1 [4-methyl-N-{(3S)-1-[4-(2-naphthyl)pyrimidin-2-yl]pyrrolidin-3-yl}benzenesulfonamide] | 1.24 | – |
| – | 1.290 | c1ccc2cc(-c3ccnc(N4CC[C@@H](N5CCOCC5)C4)n3)ccc2c1 [4-{(3R)-1-[4-(2-naphthyl)pyrimidin-2-yl]pyrrolidin-3-yl}morpholine] | 1.2 | 2.45 |
| 5.24 | 2.874 | O=C1CN([C@@H]2CCN(c3nccc(-c4ccc5ccccc5c4)n3)C2)CCN1 [4-{(3R)-1-[4-(2-naphthyl)pyrimidin-2-yl]pyrrolidin-3-yl}piperazin-2-one] | 1.25 | 2.33 |
| 5.12 | 2.405 | c1ccc2cc(-c3ccnc(N4CC[C@H](N5CCOCC5)C4)n3)ccc2c1 [4-{(3S)-1-[4-(2-naphthyl)pyrimidin-2-yl]pyrrolidin-3-yl}morpholine] | 1.17 | 3.06 |
| 5.16 | 3.585 | O=C1CN([C@H]2CCN(c3nccc(-c4ccc5ccccc5c4)n3)C2)CCN1 [4-{(3S)-1-[4-(2-naphthyl)pyrimidin-2-yl]pyrrolidin-3-yl}piperazin-2-one] | 1.28 | 3.16 |
| 5.28 | 3.552 | NC(=O)N1CCC(Nc2nccc(-c3ccc4ccccc4c3)n2)CC1 [4-{[4-(2-naphthyl)pyrimidin-2-yl]amino}piperidine-1-carboxamide] | 1.31 | 3.17 |
| – | – | O=CN1CCCN(Cc2nccc(-c3ccc4ccccc4c3)n2)CC1 [4-{[4-(2-naphthyl)pyrimidin-2-yl]methyl}-1,4-diazepane-1-carbaldehyde] | 1.15 | 1.13 |
| – | – | CN(c1nccc(-c2ccc3ccccc3c2)n1)C1CCN(C=O)CC1 [4-{methyl[4-(2-naphthyl)pyrimidin-2-yl]amino}piperidine-1-carbaldehyde] | 1.73 | 1.29 |
| – | – | CN(c1nccc(-c2ccc3ccccc3c2)n1)C1CCN(C(N)=O)CC1 [4-{methyl[4-(2-naphthyl)pyrimidin-2-yl]amino}piperidine-1-carboxamide] | 1.65 | 0.63 |
| – | – | CN(c1nccc(-c2ccc3ccccc3c2)n1)C1CCN(C(=N)N)CC1 [4-{methyl[4-(2-naphthyl)pyrimidin-2-yl]amino}piperidine-1-carboximidamide] | 1.74 | – |
| – | – | c1ccc2cc(-c3ccnc(N4CC5CCNC5C4)n3)ccc2c1 (stereo not shown) [5-(4-naphthalen-2-ylpyrimidin-2-yl)octahydropyrrolo[3,4-b]pyrrole] | 1.5 | – |
| – | – | CN(C)c1cccc2c(S(=O)(=O)N[C@H]3CC[C@H](Nc4nccc(-c5ccc6ccccc6c5)n4)CC3)cccc12 [5-(dimethylamino)-N-(trans-4-{[4-(2-naphthyl)pyrimidin-2-yl]amino}cyclohexyl)naphthalene-1-sulfonamide] | 1.43 | 1.34 |
| – | – | c1ccc2cc(-c3ccnc(N4CC[C@@H](N5CC6CCNC6C5)C4)n3)ccc2c1 (stereo partly drawn) [5-{(3R)-1-[4-(2-naphthyl)pyrimidin-2-yl]pyrrolidin-3-yl}octahydropyrrolo[3,4-b]pyrrole] | 2.2 | – |
| – | – | c1ccc2cc(-c3ccnc(N4CC[C@H](N5CC6CCNC6C5)C4)n3)ccc2c1 (stereo partly drawn) [5-{(3S)-1-[4-(2-naphthyl)pyrimidin-2-yl]pyrrolidin-3-yl}octahydropyrrolo[3,4-b]pyrrole] | 2.2 | – |
| – | – | NCC1CCN(c2nccc(-c3ccc4cc(O)ccc4c3)n2)CC1 [6-{2-[4-(aminomethyl)piperidin-1-yl]pyrimidin-4-yl}-2-naphthol] | 1.88 | 0.015 |

Reference: patent publication US20090054392A1, “NAPHTHYLPYRIMIDINE, NAPHTHYLPYRAZINE AND NAPHTHYLPYRIDAZINE ANALOGS AND THEIR USE AS AGONISTS OF THE WNT-BETA-CATENIN CELLULAR MESSAGING SYSTEM” (Wyeth, priority 2007, published 2009)
